Laboratory results published in patent US7547696B2, “Aminoquinoline derivatives and their use as adenosine A3 ligands” (sanofi-aventis, priority 2003, dated 2009).
Where a name gives a salt, the structure may show the parent alone.

melting point	SMILES
220 to 222 °C	COc1ccc(C(=O)Nc2nc3ccc(NS(=O)(=O)O)cc3c(NCc3ccccc3)c2C#N)cc1 (as salt: ammonium) [Example 11, {4-(Benzylamino)-3-cyano-2-[(4-methoxybenzoyl)amino]quinolin-6-yl}sulfamic acid]
228 to 230 °C	COc1ccc(C(=O)Nc2nc3ccc(N)cc3c(NCc3ccccc3)c2C#N)cc1 [Example 7, N-[6-amino-4-(benzylamino)-3-cyanoquinolin-2-yl]-4-methoxybenzamide]
223 to 226 °C	COc1ccc(C(=O)Nc2nc3ccc(NC=O)cc3c(NCc3cccs3)c2C#N)cc1 [Example 10, N-{3-Cyano-6-(formylamino)-4-[(2-thienylmethyl)amino]quinolin-2-yl]-4-methoxybenzamide]
237 to 240 °C	CNc1ccc2nc(NC(=O)c3ccc(OC)cc3)c(C#N)c(NCc3ccccc3)c2c1 [Example 9, N-{4-(benzylamino)-3-cyano-6-(methylamino)quinolin-2-yl}-4-methoxybenzamide]
